Results: patent US10583171B2, “NMDAR antagonists for the treatment of diseases associated with angiogenesis” (INSERM (Institut National de la Sante et de la Recherche …, priority 2015, dated 2020)

How the values were obtained:
Format in all cases: cell-based, human
[1] = tested on: hPMVEC; experiment: hPMVEC proliferation (BrdU incorporation) stimulated by VEGF-A or FBS; settings: for hPMVEC proliferation stimulated by FBS 10%: antagonist 10 μM to 100 μM, no exogenous NMDAR agonists (FIG. 2e); for hPMVEC proliferation stimulated by VEGF-A: VEGF-A 10 ng·ml^−1, antagonist 10 μM to 100 μM, no exogenous NMDAR agonists (FIG. 1f)
Protocol: FIG. 1: Activation of endothelial cell NMDAR contributes to vascular remodeling in the development of pulmonary hypertension. • (a) The table summarizes quantitation of total membrane GluN1 i.e NMDAR available for activation, in endothelial cells and also specifically in synaptic-like contact (defined as a close contact […] between two endothelial cells without junctions). A concentration index of GluN1 in the synaptic-like contacts was determined calculating the ratio of the percent of membrane GluN1 in these synaptic-like contacts divided by the percent of synaptic contact length. • (b) Quantitative RT-PCR analysis of GRIN1 gene expression from total RNA of CD31+ cells and CD31− cells isolated from the lungs of wild-type mice (n=4) and knocked-out mice (n=4) for the NMDAR in ECs showing efficiency of Grin1 knockout in ECs. Grin1 gene expression is normalized to Actinb gene expression. Values are normalized to those of WT mice. • (c) Right Ventricular Systolic Pressure (RVSP) measurement in wild-type (n=11-12) and knocked-out mice for the NMDAR in ECs (n=17-18) after 3 weeks of normoxia or chronic hypoxia (FiO2: 10%). • (d) Ratio of right ventricular weight to left ventricular plus septum weight (Fulton index) measured in wild-type (n=12) or knocked-out mice for the NMDAR in ECs (n=19-20) after 3 weeks of normoxia or chronic hypoxia (FiO2: 10%). Same experiment as in c). • (e) Morphometric analysis of pulmonary vessels in wild-type or knocked-out mice for the NMDAR in ECs after 3 weeks of normoxia or chronic hypoxia (FiO2: 10%). Same experiment as in c) and d). […] 100 vessels were analyzed for each group (20 vessels per group and per mice). […] On the left automatic quantification of total tube length and total number of nodes using the “Angiogenesis analyzer” plugin from ImageJ software on a total of 7-8 images (1 image/replicate, each image covering nearly all the well area). Values are expressed as percent of control. […] Statistical significance was determined by Mann Whitney test (b), regular two-way ANOVA followed by Bonferonni's test (c-e), one-way ANOVA followed by Bonferonni's multiple comparison test (f, h) or Student's t test (g). *p<0.05, ***p<0.001 compared to WT/control (b-e, g, h) or ^§§§ p<0.001 compared to control, *p<0.05, ***p<0.001 compared to VEGF (f). […]
FIG. 2: Supplementary figures about activation of endothelial cell NMDAR contributes to vascular remodeling in the development of pulmonary hypertension. • (a) Quantitation of total GluN1-associated immunogold particles per 100 μm^2 of endothelial cells in arteries from a control patient, and in an intimal lesion and plexiform lesion from a PAH patient. • (b) Genotyping of Tek-creXGrin1 mice. […]

[2] = tested on: hPMVEC; experiment: In vitro angiogenesis Matrigel assay with hPMVEC; settings: 4 hours, 100 μM (+)-MK-801 maleate or 50 μM DAP-V (FIG. 1g, FIG. 2f)
Protocol: Matrigel assays were performed on μ-slide angiogenesis (IBIDI, Martinsried, Germany). 100 μL of phenol-red free matrigel matrix (BD, Franklin lakes, N.J., USA) were put in each wells and slides were incubated during 30 min at 37° C. Then, 50 μL of EGM2-MV medium with our without NMDAR antagonists (100 μM (+)-MK-801 maleate or 50 μM DAP-V, both from ABCAM BIOCHEMICALS, Cambridge, UK) were added on matrigel gels during 1 hour. 3500 hPMVEC were seeded in each well in presence or absence of NMDAR antagonists. After 4 hours, bright-field images of capillary-like structures were captured using Eclipse 80i microscope coupled to Nis Elements BR2.30 software. Images were then automatically analyzed with “Angiogenesis analyzer” plugin for ImageJ software resulting in total tube length and total number of nodes determination.

[3] = tested on: hPMVEC; experiment: hPASMC/hPMVEC co-culture model of angiogenesis; settings: hPMVECs and hPASMCs co-culture, 15 days, CD31 staining; 10 to 100 μM (FIG. 1h, FIG. 2g)
Protocol: For the hPASMC/hPMVEC co-culture model of angiogenesis, 20000 PASMC were seeded on glass coverslips in a 12-well plate (CORNING, Tewksbury, Mass., USA) and cultured until confluence in SmGm2 complete medium. […] Medium was changed every 2 to 3 days and after 15 days of co-culture, cells were fixed and CD31 was stained. After staining, 5×5 images of each coverslip were captured using mosaic mode of acquisition with a Zeiss Axio Observer Z1 microscope coupled to Axiovision 4.8 software (both from CARL ZEISS, Oberkochen, Germany). Images were analysed using ImageJ software in order to calculate the CD31 staining area to the total cell area ratio. This ratio was further named as the total tube length. Automatic quantitation was also achieved using AngioQuant software^70 to determine total tube length.

[4] = tested on: hPASMCs; experiment: hPASMC proliferation induced by PDGF-BB; settings: PDGF-BB stimulation, no NMDAR agonist added to the medium
Protocol: For hPASMC culture, 250 000 cells were seeded in T75 flasks (BD Falcon, CORNING, Tewksbury, Mass., USA) and grown in the SmGm2 complete medium containing SmBm basal medium and also basic fibroblast growth factor, epidermal growth factor, insulin and gentamycin/amphotericin 1× (all from LONZA, Basel, Switzerland).
As proliferation of hPASMCs is a crucial determinant of vascular remodeling associated to increased pulmonary vascular resistance and pressure, we analyzed the role of NMDAR activation in hPASMCs proliferation. […] Thus, we explored the potential of PDGF-BB to phosphorylate GluN1 in hPASMCs on Ser896, a site phosphorylated in pulmonary arteries of PAH patients.

SMILES: C[C@@]12N[C@@H](Cc3ccccc31)c1ccccc12 [MK-801, [5R,10S]-[+]-5-methyl-10,11-dihydro-5H-dibenzo[a,d]cyclohepten-5,10-imine]
- hPMVEC proliferation stimulated by FBS 10% [1]: dose-dependently inhibit
- hPMVEC proliferation stimulated by VEGF-A [1]: dose-dependently inhibit
- number of nodes [2]: decrease
- total tube length formation [2]: decrease
- formation of the endothelial tube network [3]: dose-dependently inhibits

SMILES: N[C@H](CCCP(=O)(O)O)C(=O)O [DAP-5, 2-amino-5-phosphonopentanoïc acid]
- number of nodes [2]: decrease
- total tube length formation [2]: decrease

SMILES: CC12CC3CC(C)(C1)CC(N)(C3)C2 [memantine, 3,5-dimethyladamantan-1-amine]
- hPMVEC proliferation stimulated by FBS 10% [1]: dose-dependently inhibit
- hPMVEC proliferation stimulated by VEGF-A [1]: dose-dependently inhibit
- hPASMCs proliferation induced by PDGF-BB [4]: dose-dependent inhibition
